Results: US8138194B2, “Fused bicyclic pyrimidine compounds as aurora kinase inhibitors” (National Health Research Institutes, priority 2008, dated 2012)
Where “and” joins values, the source holds several entries; their conditions need not be identical. Equal entries are not always repeated. Where two headings read alike, the source gives them in different places.

How the values were obtained:
[1] = molecular target: T1, GST-tAurora A (123-401aa) fusion protein (Homo sapiens, UniProt O14965); experiment: Aurora Kinase A luminescent kinase assay; type: biochemical; details: IC50 (concentration of a test compound at which activity of 50% of Aurora A is inhibited)
T1 construct: GST-tAurora A (123-401aa) fusion protein; made in house; host or cells: Sf9 insect cells (baculovirus, pBacPAK8)
T1 sequence (O14965 123-401): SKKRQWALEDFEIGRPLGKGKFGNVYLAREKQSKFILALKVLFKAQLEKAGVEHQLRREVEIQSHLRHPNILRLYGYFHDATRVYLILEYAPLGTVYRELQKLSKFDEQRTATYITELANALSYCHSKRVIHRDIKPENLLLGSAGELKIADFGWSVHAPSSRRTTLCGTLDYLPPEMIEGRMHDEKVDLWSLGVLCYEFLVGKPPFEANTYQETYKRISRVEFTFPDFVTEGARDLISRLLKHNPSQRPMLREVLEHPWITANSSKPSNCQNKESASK
Procedure: The Aurora A catalytic domain with an N-terminal GST tag was constructed in pBacPAK8 plasmid and expressed in sf9 cells. […] To concentrate GST-tAurora A, buffer was replaced with Tris buffer (100 mM Tris (pH 7.5), 300 mM NaCl, 1 mM EDTA, 4 mM DTT) using Amicon ultra-15 (MWCO:30K, Millipore) to 2.4 mg/ml. After the addition of equal volume of glycerol and 0.04% Triton X-100, the proteins were stored aliquoted at −80° C.
Briefly, a test compound, enzyme, substrate-tetra(LRRWSLG), DTT and ATP were dissolved in Aur buffer (50 mM Tris-HCl pH 7.4, 10 mM NaCl, 10 mM MgCl2, and 100 μg/ml BSA) individually before the assay. […] 5 μM ATP (5 μl), 1 mM DTT (5 μl) and 0.1 mM tetra(LRRWSLG) peptide substrate (5 μl) were added into the reactions of test compounds and GST-tAurora A. The reactions were incubated at 37° C. for 90 min. 50 μl of Kinase-Glo Plus Reagent (V3771, Promega) was added into the reactions, followed by the incubation at 25° C. for 20 min.

HCT-116 xenografts = experiment: In vivo anticancer activity, colon tumor xenograft mice (injected with HCT-116); design: species or system nude mice; details: for average tumor size: treated mice
Procedure: In vivo efficacy of the compounds of this invention was assessed using colon tumor xenograft mice (injected with HCT-116), as described in Cancer Research 2004, 64, 4621-4628.
HCT-116 cells were grown as subcutaneous tumors in nude mice. When well-established HCT-116 xenografts were palpable with tumor size of ˜100 mm^3, mice were randomly assigned to three groups: a vehicle control group (10 mice), a positive control group (10 mice), and a treatment group (21 mice). Of the treated mice, ten received Compound 209 at a daily dosage of 5 mg/kg and eleven received the same compound at a daily dosage of 15 mg/kg of via IV injection through the tail veins for 5 days/week for 2 consecutive weeks (days 1-5 and 8-12). The positive control mice received VX-680 (a known anti-cancer compound) at a daily dosage of 50 mg/kg, also via IV injection through the tail veins for 5 days/week for 2 consecutive weeks (days 1-5 and 8-12).

HCT-116 cells = experiment: HCT-116 cell viability MTS assay; type: cell-based; details: Homo sapiens
Procedure: HCT-116 cell viability was examined by the MTS assay (Promega, Madison, Wis., USA). 2000 HCT-116 cells in 100 μL McCoy's 5a medium were seeded in each well of a 96-well plate. After 96-h incubation with a test compound, the cells were incubated with 20 μL of a MTS/PMS mixture (MTS/PMS ratio: 20: 1) for 2 h at 37° C. in a humidified incubator with 5% CO2 to allow viable cells to convert the tetrazolium salt (MTS) into formazan. The amount/concentration of formazan, which indicates the number of live cells, was determined by measuring the absorbance at 490 nm using a PerkinElmer Victor2 plate reader (PerkinElmer, Shelton, Cont., USA).

[2] = read-out: IC50 (concentration of a test compound which causes 50% of the cell death), HCT-116, 96-h incubation, MTS
[3] = HCT-116, 96 h, read-out: IC50 (concentration of a test compound which causes 50% of the cell death), HCT-116, 96-h incubation, MTS

| Compound | IC50 [1] | IC50 (HCT-116 cells; [2]) | further results |
| --- | --- | --- | --- |
| CN(C)Cc1ccccc1NC(=O)Nc1ccc(CCNc2ncnc3oc(-c4ccccc4)c(Cl)c23)cc1 [Compound 209] | < 1000 nM and 45 to 400 nM | < 100 nM | tumor growth suppression (HCT-116 xenografts; 5 mg/kg daily, IV, days 1-5 and 8-12): suppressed tumor growth insignificantly; inhibition of tumor growth (HCT-116 xenografts; 15 mg/kg daily, IV, days 1-5 and 8-12): inhibition of tumor growth comparable to that of VX-680; average tumor size (HCT-116 xenografts; eleventh day (dose group not stated)): 654 mm^3; average tumor size (HCT-116 xenografts; fourth day (dose group not stated)): 381 mm^3 |
| O=C(NCCCl)Nc1ccc(CCNc2ncnc3oc(-c4ccccc4)c(Cl)c23)cc1 [Compound 217] | < 1000 nM and 45 to 400 nM | – | IC50 (HCT-116 cells; HCT-116, 96 h, read-out: IC50 (concentration of a test compound which causes 50% of the cell death)): 100 to 900 nM |
| CCCCNC(=O)Nc1ccc(CCNc2ncnc3oc(-c4ccccc4)c(-c4ccccc4)c23)cc1 [Compound 222] | < 1000 nM and 45 to 400 nM | 100 to 900 nM | – |
| O=C(Nc1ccccc1)Nc1ccc(CCNc2ncnc3oc(-c4cccc(O)c4)cc23)cc1 [Compound 223] | < 1000 nM and 45 to 400 nM | 100 to 900 nM | – |
| CN(C)CCOc1cccc(-c2cc3c(NCCc4ccc(NC(=O)Nc5ccccc5)cc4)ncnc3o2)c1 [Compound 224] | < 1000 nM and 45 to 400 nM | – | IC50 (HCT-116 cells; [3]): 100 to 900 nM |
| O=C(Nc1ccccc1)Nc1ccc(CCNc2ncnc3oc(-c4ccccc4)c(CO)c23)cc1 [Compound 225] | < 1000 nM and 45 to 400 nM | 100 to 900 nM | – |
| O=C(Nc1ccccc1)Nc1ccc(CCNc2ncnc3oc(-c4ccc(OCCN5CCOCC5)cc4)cc23)cc1 [Compound 230] | 45 to 400 nM and < 1000 nM | 100 to 900 nM | – |
| O=C(Nc1ccc(CCNc2ncnc3oc(-c4ccccc4)c(Cl)c23)cc1)Nc1cccnc1 [Compound 232] | 45 to 400 nM and < 1000 nM | 100 to 900 nM | – |
| O=C(Nc1ccccc1)Nc1ccc(CCNc2ncnc3oc(-c4ccc(OCCCl)cc4)cc23)cc1 [Compound 235] | < 1000 nM and 45 to 400 nM | 100 to 900 nM | – |
| O=C(Nc1ccccc1)Nc1ccc(CCNc2ncnc3oc(-c4ccc(OCCN5CCC(CO)CC5)cc4)cc23)cc1 [Compound 236] | < 1000 nM and 45 to 400 nM | 100 to 900 nM | – |
| O=C(Nc1ccccc1)Nc1ccc(CCNc2ncnc3oc(-c4ccc(OCCCN5CCC(CO)CC5)cc4)cc23)cc1 [Compound 237] | < 1000 nM and 45 to 400 nM | 100 to 900 nM | – |
| O=C(Nc1ccccc1)Nc1ccc(CCNc2ncnc3oc(-c4ccc(OCCCN5CCC[C@H]5CO)cc4)cc23)cc1 [Compound 241] | < 1000 nM and 45 to 400 nM | 100 to 900 nM | – |
| COc1ccc(-c2oc3ncnc(NCCc4ccc(NC(=O)Nc5ccccc5)cc4)c3c2Cl)cc1 [Compound 244] | < 1000 nM and 45 to 400 nM | 100 to 900 nM | – |
| CN(C)CCCOc1ccc(-c2cc3c(NCCc4ccc(NC(=O)Nc5ccccc5)cc4)ncnc3o2)cc1 [Compound 247] | 45 to 400 nM and < 1000 nM | – | IC50 (HCT-116 cells; [3]): 100 to 900 nM |
| O=C(Nc1ccccc1)Nc1ccc(CCNc2ncnc3oc(-c4ccccc4)c(C#CCCO)c23)cc1 [Compound 249] | 45 to 400 nM and < 1000 nM | 100 to 900 nM | – |
| O=C(Nc1ccccc1)Nc1ccc(CCNc2ncnc3oc(-c4ccccc4)c(-c4ccc(CO)o4)c23)cc1 [Compound 250] | 45 to 400 nM and < 1000 nM | 100 to 900 nM | – |
| CN(C)Cc1cccc(NC(=O)Nc2ccc(CCNc3ncnc4oc(-c5ccccc5)c(Cl)c34)cc2)c1 [Compound 252] | < 1000 nM | 100 to 900 nM | – |
| Cc1oc2ncnc(NCCc3cnc(NC(=O)Nc4ccccc4)s3)c2c1C [Compound 254] | 45 to 400 nM and < 1000 nM | 100 to 900 nM | – |
| Cc1cc(Nc2cc(N3CCN(C)CC3)nc(Sc3ccc(NC(=O)C4CC4)cc3)n2)n[nH]1 [VX-680, reference compound] | – | – | inhibition of tumor growth (HCT-116 xenografts; 50 mg/kg daily, IV, days 1-5 and 8-12, positive control): inhibition of tumor growth |

Now from value to compound, other results behind:

| IC50 [1] | Compound | IC50 (HCT-116 cells; [2]) | further results |
| --- | --- | --- | --- |
| < 1000 nM and 45 to 400 nM | O=C(NCCN1CCOCC1)Nc1ccc(CCNc2ncnc3oc(-c4ccccc4)c(Cl)c23)cc1 [Compound 218] | 100 to 900 nM | – |
| < 1000 nM and 45 to 400 nM | O=C(Nc1ccccc1)Nc1ccc(CCNc2ncnc3oc(-c4ccccc4)c(-c4cccc([N+](=O)[O-])c4)c23)cc1 [Compound 219] | 100 to 900 nM | – |
| < 1000 nM and 45 to 400 nM | Cc1oc2ncnc(NCCc3ccc(NC(=O)Nc4ccccc4)cc3)c2c1C [Compound 220] | 100 to 900 nM | – |
| < 1000 nM and 45 to 400 nM | COc1cccc(-c2cc3c(NCCc4ccc(NC(=O)Nc5ccccc5)cc4)ncnc3o2)c1 [Compound 221] | 100 to 900 nM | – |
| < 1000 nM and 45 to 400 nM | Cc1c(-c2ccccc2)oc2ncnc(NCCc3ccc(NC(=O)Nc4ccccc4)cc3)c12 [Compound 226] | 100 to 900 nM | – |
| < 1000 nM and 45 to 400 nM | O=C(Nc1ccccc1)Nc1ccc(CCNc2ncnc3oc(-c4ccc(OCCN5CCC(O)CC5)cc4)cc23)cc1 [Compound 239] | 100 to 900 nM | – |
| < 1000 nM and 45 to 400 nM | O=C(Nc1ccccc1)Nc1ccc(CCNc2ncnc3oc(-c4ccc(OCCCN5CCC(O)CC5)cc4)cc23)cc1 [Compound 240] | 100 to 900 nM | – |
| < 1000 nM | COc1ccc(-c2cc3c(NCCc4ccc(NC(=O)Nc5ccccc5CN(C)C)cc4)ncnc3o2)cc1 [Compound 245] | 100 to 900 nM | – |
| < 1000 nM | O=C(Nc1ccccc1)Nc1ccc(CCNc2ncnc3sc4c(c23)CCCCC4)cc1 [Compound 248] | 100 to 900 nM | – |
| < 1000 nM | O=C(Nc1ccccc1)Nc1ccc(CCNc2ncnc3oc(-c4ccccc4)c(CCCCO)c23)cc1 [Compound 251] | 100 to 900 nM | – |
| 45 to 400 nM and < 1000 nM | CN(C)Cc1ccc(NC(=O)Nc2ccc(CCNc3ncnc4oc(-c5ccccc5)c(Cl)c34)cc2)cc1 [Compound 253] | 100 to 900 nM | – |
| < 1000 nM | O=C(Nc1ccccc1)Nc1ncc(CCNc2ncnc3oc(-c4ccccc4)cc23)s1 [Compound 255] | 100 to 900 nM | – |
| 45 to 400 nM and < 1000 nM | O=C(Nc1ccccc1)Nc1ncc(CCNc2ncnc3oc(-c4ccccc4)c(Cl)c23)s1 [Compound 256] | 100 to 900 nM | – |
